# Source: ChEMBL document CHEMBL4308841, “Synthesis, in vitro antiproliferative activity, and kinase inhibitory effects of pyrazole-containing diarylureas and diarylamides” (Eur J Med Chem, 2018)
# Test system: OVCAR-3
# Test: Growth inhibition of human OVCAR3 cells assessed as cell growth at 0.1 uM incubated for 48 hrs by sulforhodamine B assay relative to control
# Format: functional
# Conditions: OVCAR-3, 48 h, read-out: Activity
row,Compound,growth at 0.1 µM [%]
1,COc1cc(Cl)cc(-c2nn(-c3cccc(NC(=O)Nc4ccc(Cl)c(Cl)c4)c3)cc2-c2ccncc2)c1,101

# Test system: UACC-257
# Test: Growth inhibition of human UACC257 cells assessed as cell growth at 0.1 uM incubated for 48 hrs by sulforhodamine B assay relative to control
# Format: functional
# Conditions: UACC-257, 48 h, read-out: Activity
row,Compound,growth at 0.1 µM [%]
1,COc1cc(Cl)cc(-c2nn(-c3cccc(NC(=O)Nc4ccc(Cl)c(Cl)c4)c3)cc2-c2ccncc2)c1,96

# Test system: SF-539
# Test: Growth inhibition of human SF539 cells incubated for 48 hrs by sulforhodamine B assay
# Format: functional, cell-based
# Conditions: SF-539, 48 h, read-out: GI50
row,Compound,GI50 [µM]
1,COc1cc(Cl)cc(-c2nn(-c3cccc(NC(=O)Nc4ccc(Cl)c(Cl)c4)c3)cc2-c2ccncc2)c1,2.5

# Same assay, conditions: SF-539, 48 h, read-out: LC50 (the source's name)
row,Compound,CC50 [µM]
1,COc1cc(Cl)cc(-c2nn(-c3cccc(NC(=O)Nc4ccc(Cl)c(Cl)c4)c3)cc2-c2ccncc2)c1,> 100

# Same assay, conditions: SF-539, 48 h, read-out: TGI
row,Compound,TGI [µM]
1,COc1cc(Cl)cc(-c2nn(-c3cccc(NC(=O)Nc4ccc(Cl)c(Cl)c4)c3)cc2-c2ccncc2)c1,13.2

# Same assay, conditions: SF-539, 48 h, read-out: pGI50 (converted)
row,Compound,GI50 [µM]
1,COc1cc(Cl)cc(-c2nn(-c3cccc(NC(=O)Nc4ccc(Cl)c(Cl)c4)c3)cc2-c2ccncc2)c1,2.57

# Same assay, conditions: SF-539, 48 h, read-out: pLC50 (the source's name) (converted)
row,Compound,CC50 [µM]
1,COc1cc(Cl)cc(-c2nn(-c3cccc(NC(=O)Nc4ccc(Cl)c(Cl)c4)c3)cc2-c2ccncc2)c1,> 100

# Same assay, conditions: SF-539, 48 h, read-out: pTGI (converted)
row,Compound,TGI [µM]
1,COc1cc(Cl)cc(-c2nn(-c3cccc(NC(=O)Nc4ccc(Cl)c(Cl)c4)c3)cc2-c2ccncc2)c1,13.2

# Test system: HCT-116
# Test: Growth inhibition of human HCT116 cells assessed as cell growth at 0.1 uM incubated for 48 hrs by sulforhodamine B assay relative to control
# Format: functional
# Conditions: HCT-116, 48 h, read-out: Activity
row,Compound,growth at 0.1 µM [%]
1,COc1cc(Cl)cc(-c2nn(-c3cccc(NC(=O)Nc4ccc(Cl)c(Cl)c4)c3)cc2-c2ccncc2)c1,100

# Test system: HOP-62
# Test: Growth inhibition of human HOP62 cells assessed as cell growth at 1 uM incubated for 48 hrs by sulforhodamine B assay relative to control
# Format: functional
# Conditions: HOP-62, 48 h, read-out: Activity
row,Compound,growth at 1 µM [%]
1,COc1cc(Cl)cc(-c2nn(-c3cccc(NC(=O)Nc4ccc(Cl)c(Cl)c4)c3)cc2-c2ccncc2)c1,91

# Test system: HCT-15
# Test: Growth inhibition of human HCT15 cells assessed as cell growth at 100 uM incubated for 48 hrs by sulforhodamine B assay relative to control
# Format: functional
# Conditions: HCT-15, 48 h, read-out: Activity
row,Compound,growth at 100 µM [%]
1,COc1cc(Cl)cc(-c2nn(-c3cccc(NC(=O)Nc4ccc(Cl)c(Cl)c4)c3)cc2-c2ccncc2)c1,-9

# Test system: RPMI-8226
# Test: Growth inhibition of human RPMI8226 cells assessed as cell growth at 1 uM incubated for 48 hrs by sulforhodamine B assay relative to control
# Format: functional
# Conditions: RPMI-8226, 48 h, read-out: Activity
row,Compound,growth at 1 µM [%]
1,COc1cc(Cl)cc(-c2nn(-c3cccc(NC(=O)Nc4ccc(Cl)c(Cl)c4)c3)cc2-c2ccncc2)c1,39

# Test system: SF-295
# Test: Growth inhibition of human SF295 cells assessed as cell growth at 1 uM incubated for 48 hrs by sulforhodamine B assay relative to control
# Format: functional
# Conditions: SF-295, 48 h, read-out: Activity
row,Compound,growth at 1 µM [%]
1,COc1cc(Cl)cc(-c2nn(-c3cccc(NC(=O)Nc4ccc(Cl)c(Cl)c4)c3)cc2-c2ccncc2)c1,70

# Test system: NCI-H226
# Test: Growth inhibition of human NCI-H226 cells assessed as cell growth at 0.1 uM incubated for 48 hrs by sulforhodamine B assay relative to control
# Format: functional
# Conditions: NCI-H226, 48 h, read-out: Activity
row,Compound,growth at 0.1 µM [%]
1,COc1cc(Cl)cc(-c2nn(-c3cccc(NC(=O)Nc4ccc(Cl)c(Cl)c4)c3)cc2-c2ccncc2)c1,96

# Test system: U-251
# Test: Growth inhibition of human U251 cells assessed as cell growth at 1 uM incubated for 48 hrs by sulforhodamine B assay relative to control
# Format: functional
# Conditions: U-251, 48 h, read-out: Activity
row,Compound,growth at 1 µM [%]
1,COc1cc(Cl)cc(-c2nn(-c3cccc(NC(=O)Nc4ccc(Cl)c(Cl)c4)c3)cc2-c2ccncc2)c1,71

# Test system: NCI-H460
# Test: Growth inhibition of human NCI-H460 cells assessed as cell growth at 0.1 uM incubated for 48 hrs by sulforhodamine B assay relative to control
# Format: functional
# Conditions: NCI-H460, 48 h, read-out: Activity
row,Compound,growth at 0.1 µM [%]
1,COc1cc(Cl)cc(-c2nn(-c3cccc(NC(=O)Nc4ccc(Cl)c(Cl)c4)c3)cc2-c2ccncc2)c1,100

# Test system: Hs-578T
# Test: Growth inhibition of human Hs578T cells assessed as cell growth at 1 uM incubated for 48 hrs by sulforhodamine B assay relative to control
# Format: functional
# Conditions: read-out: Activity
row,Compound,growth at 1 µM [%]
1,COc1cc(Cl)cc(-c2nn(-c3cccc(NC(=O)Nc4ccc(Cl)c(Cl)c4)c3)cc2-c2ccncc2)c1,99

# Test system: DU-145
# Test: Growth inhibition of human DU145 cells incubated for 48 hrs by sulforhodamine B assay
# Format: functional, cell-based
# Conditions: DU-145, 48 h, read-out: GI50
row,Compound,GI50 [µM]
1,COc1cc(Cl)cc(-c2nn(-c3cccc(NC(=O)Nc4ccc(Cl)c(Cl)c4)c3)cc2-c2ccncc2)c1,3

# Same assay, conditions: DU-145, 48 h, read-out: LC50 (the source's name)
row,Compound,CC50 [µM]
1,COc1cc(Cl)cc(-c2nn(-c3cccc(NC(=O)Nc4ccc(Cl)c(Cl)c4)c3)cc2-c2ccncc2)c1,> 100

# Same assay, conditions: DU-145, 48 h, read-out: TGI
row,Compound,TGI [µM]
1,COc1cc(Cl)cc(-c2nn(-c3cccc(NC(=O)Nc4ccc(Cl)c(Cl)c4)c3)cc2-c2ccncc2)c1,> 100

# Same assay, conditions: DU-145, 48 h, read-out: pGI50 (converted)
row,Compound,GI50 [µM]
1,COc1cc(Cl)cc(-c2nn(-c3cccc(NC(=O)Nc4ccc(Cl)c(Cl)c4)c3)cc2-c2ccncc2)c1,3.89

# Same assay, conditions: DU-145, 48 h, read-out: pLC50 (the source's name) (converted)
row,Compound,CC50 [µM]
1,COc1cc(Cl)cc(-c2nn(-c3cccc(NC(=O)Nc4ccc(Cl)c(Cl)c4)c3)cc2-c2ccncc2)c1,> 100

# Same assay, conditions: DU-145, 48 h, read-out: pTGI (converted)
row,Compound,TGI [µM]
1,COc1cc(Cl)cc(-c2nn(-c3cccc(NC(=O)Nc4ccc(Cl)c(Cl)c4)c3)cc2-c2ccncc2)c1,> 100

# Test system: SR
# Test: Growth inhibition of human SR cells assessed as cell growth at 0.01 uM incubated for 48 hrs by sulforhodamine B assay relative to control
# Format: functional
# Conditions: read-out: Activity
row,Compound,growth at 0.01 µM [%]
1,COc1cc(Cl)cc(-c2nn(-c3cccc(NC(=O)Nc4ccc(Cl)c(Cl)c4)c3)cc2-c2ccncc2)c1,94

# Test system: OVCAR-3
# Test: Growth inhibition of human OVCAR3 cells assessed as cell growth at 100 uM incubated for 48 hrs by sulforhodamine B assay relative to control
# Format: functional
# Conditions: OVCAR-3, 48 h, read-out: Activity
row,Compound,growth at 100 µM [%]
1,COc1cc(Cl)cc(-c2nn(-c3cccc(NC(=O)Nc4ccc(Cl)c(Cl)c4)c3)cc2-c2ccncc2)c1,-4
